Data reported in patent US5106854A, “Quinolinecarboxylic acids” (Shionogi & Co., Ltd., priority 1988, dated 1992).
In brackets after ≈: the same amount, converted by molar mass. Where a name gives a salt, the structure may show the parent alone. Each block holds one molecule with its values, some of them ahead of it.

How the values were obtained:
Type in all cases: cell-based
[1] = system: Staphylococcus aureus SR 14 (R); assay: Antibacterial spectrum, minimum growth inhibitory concentration (MIC), strain B; settings: 10^6 cells/ml, Japan Society of Chemotherapy method
Description: The antibacterial activity was determined by measuring minimum growth inhibitory concentrations (MICs) in accordance with the method designated by the Japan Society of Chemotherapy.
A, B, C and D in the table indicate the following meanings:
B: Staphylococcus aureus SR 14 (R)
The test microorganisms were used at 10^6 cells/ml.

[2] = system: Escherichia coli SR377 (R); assay: Antibacterial spectrum, minimum growth inhibitory concentration (MIC), strain D; settings: 10^6 cells/ml, Japan Society of Chemotherapy method
Description: (§1) The antibacterial activity was determined by measuring minimum growth inhibitory concentrations (MICs) in accordance with the method designated by the Japan Society of Chemotherapy. A, B, C and D in the table indicate the following meanings: D: Escherichia coli SR377 (R). The test microorganisms were used at 10^6 cells/ml.

[3] = system: Staphylococcus aureus SMITH; assay: Antibacterial spectrum, minimum growth inhibitory concentration (MIC), strain A; settings: 10^6 cells/ml, Japan Society of Chemotherapy method
Description: as §1, with “A: Staphylococcus aureus SMITH” for “D: Escherichia coli SR377 (R).”

Escherichia coli EC-14 = assay: Antibacterial spectrum, minimum growth inhibitory concentration (MIC), strain C; settings: EC14, 10^6 cells/ml, Japan Society of Chemotherapy method
Description: as §1, with “C:” for “D:”, “EC-14” for “SR377 (R).”

Structure (SMILES): CN[C@H]1CN(c2c(F)c(N)c3c(=O)c(C(=O)O)cn(C4CC4)c3c2F)C[C@H]1OC [Compound I-1, (+)-1-Cyclopropyl-5-amino-6,8-difluoro-1,4-dihydro-7-(cis-3-methylamino-4-methoxy-1-pyrrolidinyl)-4-oxo-3-quinolinecarboxylic acid hydrochloride]
MIC [1]: 0.1 µg/mL | MIC [2]: 0.2 µg/mL | MIC [3]: 0.1 µg/mL | MIC (Escherichia coli EC-14): 0.1 µg/mL

Structure (SMILES): CO[C@H]1CN(c2c(F)c(N)c3c(=O)c(C(=O)O)cn(C4CC4)c3c2F)C[C@H]1N (relative stereo) [Compound I-5, 1-Cyclopropyl-5-amino-6,8-difluoro-1,4-dihydro-7-(cis-3-amino-4-methoxy-1-pyrrolidinyl)-4-oxo-3-quinolinecarboxylic acid]
MIC [1]: 0.05 µg/mL (≈ 0.127 µM) | MIC [2]: 0.05 µg/mL (≈ 0.127 µM) | MIC [3]: 0.02 µg/mL (≈ 0.0507 µM) | MIC (Escherichia coli EC-14): 0.02 µg/mL (≈ 0.0507 µM)

Structure (SMILES): CC1COc2c(N3CCN(C)CC3)c(F)cc3c(=O)c(C(=O)O)cn1c23 (stereo not shown) [OFLX, ofloxacin, reference compound]
MIC [1]: 0.4 µg/mL (≈ 1.11 µM) | MIC [2]: 0.1 µg/mL (≈ 0.277 µM) | MIC [3]: 0.2 µg/mL (≈ 0.553 µM) | MIC (Escherichia coli EC-14): 0.1 µg/mL (≈ 0.277 µM)

Structure (SMILES): CO[C@@H]1CN(c2c(F)c(N)c3c(=O)c(C(=O)O)cn(C4CC4)c3c2F)C[C@@H]1N [Compound I-3, (+)-1-Cyclopropyl-5-amino-6,8-difluoro-1,4-dihydro-7-(cis-3-amino-4-methoxy-1-pyrrolidinyl)-4-oxo-3-quinolinecarboxylic acid hydrochloride]
MIC [1]: 0.05 µg/mL | MIC [2]: 0.1 µg/mL | MIC [3]: 0.05 µg/mL | MIC (Escherichia coli EC-14): 0.02 µg/mL

The next lines start with the values.

MIC [1]: 0.05 µg/mL | MIC [2]: 0.1 µg/mL | MIC [3]: 0.05 µg/mL | MIC (Escherichia coli EC-14): 0.05 µg/mL
Structure (SMILES): CN[C@@H]1CN(c2c(F)c(N)c3c(=O)c(C(=O)O)cn(C4CC4)c3c2F)C[C@@H]1OC.Cl [Compound I-2, (-)-1-Cyclopropyl-5-amino-6,8-difluoro-1,4-dihydro-7-(cis-3-methylamino-4-methoxy-1-pyrrolidinyl)-4-oxo-3-quinolinecarboxylic acid hydrochloride]

MIC [1]: 0.05 µg/mL (≈ 0.122 µM) | MIC [2]: 0.1 µg/mL (≈ 0.245 µM) | MIC [3]: 0.05 µg/mL (≈ 0.122 µM) | MIC (Escherichia coli EC-14): 0.05 µg/mL (≈ 0.122 µM)
Structure (SMILES): CN[C@@H]1CN(c2c(F)c(N)c3c(=O)c(C(=O)O)cn(C4CC4)c3c2F)C[C@@H]1OC (relative stereo) [Compound I-11, 1-Cyclopropyl-5-amino-6,8-difluoro-1,4-dihydro-7-(cis-3-methylamino-4-methoxy-1-pyrrolidinyl)-4-oxo-3-quinolinecarboxylic acid]

MIC [1]: 0.02 µg/mL | MIC [2]: 0.05 µg/mL | MIC [3]: 0.02 µg/mL | MIC (Escherichia coli EC-14): 0.02 µg/mL
Structure (SMILES): CO[C@H]1CN(c2c(F)c(N)c3c(=O)c(C(=O)O)cn(C4CC4)c3c2F)C[C@H]1N [Compound I-4, (-)-1-Cyclopropyl-5-amino-6,8-difluoro-1,4-dihydro-7-(cis-3-amino-4-methoxy-1-pyrrolidinyl)-4-oxo-3-quinolinecarbxylic acid hydrochloride]
